According to US20050197350A1, “Novel quinoline, tetrahydroquinazoline, and pyrimidine derivatives and methods of treatment related to the use thereof” (TAISHO PHARMACEUTICAL CO., LTD., priority 2003, published 2005):

test system: MCH receptors; assay: MCH receptor activity class (method not given); settings: MCH receptor; class by percent of control at 10^-7 M or IC50

Question: How did the class turn out when `CN(C)c1nc(N[C@H]2CC[C@@H](NC(=S)NCC3CCCO3)CC2)nc2c1CCCC2` (relative stereo) [compound 1958] was run?
Answer: The class was 3 (Class 3 The value of percent of control at 10^−7 M was more than 60% or the value of IC50 was more than 200 nM.).

Question: Which class does the source give for `CN(C)c1nc(N[C@H]2CC[C@@H](NC(=S)NC34CC5CC(CC(C5)C3)C4)CC2)nc2c1CCCC2` (relative stereo) [compound 1962] here?
Answer: The class was 3 (Class 3 The value of percent of control at 10^−7 M was more than 60% or the value of IC50 was more than 200 nM.).

Question: Which class does the source give for `CC(NC(=S)N[C@H]1CC[C@@H](Nc2nc3c(c(N(C)C)n2)CCCC3)CC1)c1ccc(F)cc1` (relative stereo) [compound 2014] here?
Answer: The class was 3 (Class 3 The value of percent of control at 10^−7 M was more than 60% or the value of IC50 was more than 200 nM.).

Question: For `CC(NC(=S)N[C@H]1CC[C@@H](Nc2nc3c(c(N(C)C)n2)CCCC3)CC1)c1ccccc1` (relative stereo) [compound 2024], which class is on record?
Answer: The class was 3 (Class 3 The value of percent of control at 10^−7 M was more than 60% or the value of IC50 was more than 200 nM.).

Question: For `CN(C)c1nc(N[C@H]2CC[C@@H](NC(=S)NC3CC4C=CC3C4)CC2)nc2c1CCCC2` (relative stereo) [compound 2067], which class is on record?
Answer: Its class is 3 (Class 3 The value of percent of control at 10^−7 M was more than 60% or the value of IC50 was more than 200 nM.).

same assay, conditions: activity class 1-3: percent of control at 10^-7 M or IC50

Question: With `COC(CN[C@H]1CC[C@@H](Nc2nccc(N(C)C)n2)CC1)c1ccccc1` (relative stereo) [compound 1516] as the compound, how does the class read?
Answer: The class was 3 (Class 3 The value of percent of control at 10^−7 M was more than 60% or the value of IC50 was more than 200 nM.).

Question: For `CCOC(=O)[C@H](CC(C)C)NC(=O)N[C@H]1CC[C@@H](Nc2nc3c(c(N(C)C)n2)CCCC3)CC1` (relative stereo) [compound 1663], which class is on record?
Answer: The class was 3 (Class 3 The value of percent of control at 10^−7 M was more than 60% or the value of IC50 was more than 200 nM.).

Question: How did the class turn out when `COC(=O)[C@H](CCSC)NC(=O)N[C@H]1CC[C@@H](Nc2nc3c(c(N(C)C)n2)CCCC3)CC1` (relative stereo) [compound 1699] was run?
Answer: The class was 3 (Class 3 The value of percent of control at 10^−7 M was more than 60% or the value of IC50 was more than 200 nM.).

Question: Which class does the source give for `CC(NC(=O)N[C@H]1CC[C@@H](Nc2nc3c(c(N(C)C)n2)CCCC3)CC1)c1cccc2ccccc12` (relative stereo) [compound 1704] here?
Answer: Its class is 1 (Class 1: The value of percent of control at 10^−7 M was less than 40% or the value of IC50 was less than 50 nM.).

Question: For `COC(=O)[C@H](Cc1ccccc1)NC(=O)N[C@H]1CC[C@@H](Nc2nc3c(c(N(C)C)n2)CCCC3)CC1` (relative stereo) [compound 1705], which class is on record?
Answer: Its class is 3 (Class 3 The value of percent of control at 10^−7 M was more than 60% or the value of IC50 was more than 200 nM.).

Question: `CC(NC(=O)N[C@H]1CC[C@@H](Nc2nc3c(c(N(C)C)n2)CCCC3)CC1)c1ccccc1` (relative stereo) [compound 1706] was tested. Which class did it give?
Answer: The class was 3 (Class 3 The value of percent of control at 10^−7 M was more than 60% or the value of IC50 was more than 200 nM.).

same assay, conditions: activity class per percent of control at 10^-7 M or IC50

Question: For `CN(C)c1nc(N[C@H]2CC[C@@H](NC(=O)C(CC(=O)c3ccccc3)c3c[nH]c4ccccc34)CC2)nc2c1CCCC2` (relative stereo) [compound 991], which class is on record?
Answer: Its class is 2 (Class 2: The value of percent of control at 10^−7 M was from 40% to 60% or the value of IC′50 was from 50 nM to 200 nM.).

Question: How did the class turn out when `CN(C)c1nc(N[C@H]2CC[C@@H](NC(=O)C(CC(=O)c3ccc(Br)cc3)c3c[nH]c4ccccc34)CC2)nc2c1CCCC2` (relative stereo) [compound 992] was run?
Answer: Its class is 3 (Class 3 The value of percent of control at 10^−7 M was more than 60% or the value of IC50 was more than 200 nM.).

Question: For `CCc1cccc2c(C(CC(=O)c3ccc(C(C)(C)C)cc3)C(=O)N[C@H]3CC[C@@H](Nc4nc5c(c(N(C)C)n4)CCCC5)CC3)c[nH]c12` (relative stereo) [compound 996], which class is on record?
Answer: Its class is 1 (Class 1: The value of percent of control at 10^−7 M was less than 40% or the value of IC50 was less than 50 nM.).

Question: For `CN(C)c1nc(N[C@H]2CC[C@@H](NC(=O)C(CC(=O)c3ccc(C(C)(C)C)cc3)c3cn(C)c4ccccc34)CC2)nc2c1CCCC2` (relative stereo) [compound 997], which class is on record?
Answer: Its class is 3 (Class 3 The value of percent of control at 10^−7 M was more than 60% or the value of IC50 was more than 200 nM.).

Question: `Cc1ccc(C(=O)CC(C(=O)N[C@H]2CC[C@@H](Nc3nc4c(c(N(C)C)n3)CCCC4)CC2)c2cn(C)c3ccccc23)cc1` (relative stereo) [compound 998] was tested. Which class did it give?
Answer: The class was 2 (Class 2: The value of percent of control at 10^−7 M was from 40% to 60% or the value of IC′50 was from 50 nM to 200 nM.).

Question: For `CCCN(CCC)C(=O)[C@H](CCC(=O)N[C@H]1CC[C@@H](Nc2nc3c(c(N(C)C)n2)CCCC3)CC1)NC(=O)c1ccccc1` (relative stereo) [compound 1006], which class is on record?
Answer: The class was 1 (Class 1: The value of percent of control at 10^−7 M was less than 40% or the value of IC50 was less than 50 nM.).

Question: With `CN(C)c1nc(N[C@H]2CC[C@@H](NC(=O)C(CC(=O)c3ccc(Cl)cc3)SCc3ccc(Cl)cc3)CC2)nc2c1CCCC2` (relative stereo) [compound 1017] as the compound, how does the class read?
Answer: Its class is 3 (Class 3 The value of percent of control at 10^−7 M was more than 60% or the value of IC50 was more than 200 nM.).

Question: Which class does the source give for `Cc1ccc(C(=O)CC(SCc2ccc(Cl)cc2)C(=O)N[C@H]2CC[C@@H](Nc3nc4c(c(N(C)C)n3)CCCC4)CC2)cc1` (relative stereo) [compound 1018] here?
Answer: Its class is 2 (Class 2: The value of percent of control at 10^−7 M was from 40% to 60% or the value of IC′50 was from 50 nM to 200 nM.).

Question: For `CC1=C(CC(=O)N[C@H]2CC[C@@H](Nc3nc4c(c(N(C)C)n3)CCCC4)CC2)c2cc(F)ccc2/C1=C/c1ccc([S+](C)[O-])cc1` (relative stereo) [compound 1019], which class is on record?
Answer: Its class is 1 (Class 1: The value of percent of control at 10^−7 M was less than 40% or the value of IC50 was less than 50 nM.).

Question: With `CC(C(=O)N[C@H]1CC[C@@H](Nc2nc3c(c(N(C)C)n2)CCCC3)CC1)c1ccc(C(=O)c2cccs2)cc1` (relative stereo) [compound 1020] as the compound, how does the class read?
Answer: The class was 2 (Class 2: The value of percent of control at 10^−7 M was from 40% to 60% or the value of IC′50 was from 50 nM to 200 nM.).

Question: `COC(C(=O)N[C@H]1CC[C@@H](Nc2nc3c(c(N(C)C)n2)CCCC3)CC1)c1ccccc1` (relative stereo) [compound 1052] was tested. Which class did it give?
Answer: The class was 2 (Class 2: The value of percent of control at 10^−7 M was from 40% to 60% or the value of IC′50 was from 50 nM to 200 nM.).

Question: With `CN(C)c1nc(N[C@H]2CC[C@@H](NC(=O)C3CCc4ccccc4C3)CC2)nc2c1CCCC2` (relative stereo) [compound 1053] as the compound, how does the class read?
Answer: The class was 3 (Class 3 The value of percent of control at 10^−7 M was more than 60% or the value of IC50 was more than 200 nM.).

Question: For `CN(C)c1nc(N[C@H]2CC[C@@H](CNC(=O)C(Cc3ccccc3)c3ccccc3)CC2)nc2c1CCCC2` (relative stereo) [compound 1066], which class is on record?
Answer: Its class is 3 (Class 3 The value of percent of control at 10^−7 M was more than 60% or the value of IC50 was more than 200 nM.).

Question: How did the class turn out when `CN(C)c1nc(N[C@H]2CC[C@@H](CNC(=O)C3CC(=O)c4ccccc43)CC2)nc2c1CCCC2` (relative stereo) [compound 1071] was run?
Answer: The class was 3 (Class 3 The value of percent of control at 10^−7 M was more than 60% or the value of IC50 was more than 200 nM.).

Question: With `CCOc1ccc(C(=O)CC(C(=O)NC[C@H]2CC[C@@H](Nc3nc4c(c(N(C)C)n3)CCCC4)CC2)C2C(=O)N(c3ccccc3)N=C2C)cc1` (relative stereo) [compound 1080] as the compound, how does the class read?
Answer: The class was 3 (Class 3 The value of percent of control at 10^−7 M was more than 60% or the value of IC50 was more than 200 nM.).

Question: Which class does the source give for `CC(CCN[C@H]1CC[C@@H](Nc2cc(N(C)C)c3ccccc3n2)CC1)c1ccccc1` (relative stereo) [compound 1106] here?
Answer: Its class is 3 (Class 3 The value of percent of control at 10^−7 M was more than 60% or the value of IC50 was more than 200 nM.).

same assay, conditions: class by percent of control at 10^-7 M or IC50

Question: For `CC(CCN[C@H]1CC[C@@H](Nc2nccc(N(C)C)n2)CC1)c1ccccc1` (relative stereo) [compound 1226], which class is on record?
Answer: Its class is 3 (Class 3 The value of percent of control at 10^−7 M was more than 60% or the value of IC50 was more than 200 nM.).

Question: Which class does the source give for `CC(CN[C@H]1CC[C@@H](Nc2nccc(N(C)C)n2)CC1)c1ccccc1` (relative stereo) [compound 1231] here?
Answer: Its class is 3 (Class 3 The value of percent of control at 10^−7 M was more than 60% or the value of IC50 was more than 200 nM.).

Question: Which class does the source give for `CC(CN[C@H]1CC[C@@H](Nc2nc3c(c(N(C)C)n2)CCCC3)CC1)c1ccccc1` (relative stereo) [compound 1352] here?
Answer: Its class is 3 (Class 3 The value of percent of control at 10^−7 M was more than 60% or the value of IC50 was more than 200 nM.).

Question: For `COC(CN[C@H]1CC[C@@H](Nc2cc(N(C)C)c3ccccc3n2)CC1)c1ccccc1` (relative stereo) [compound 1450], which class is on record?
Answer: The class was 3 (Class 3 The value of percent of control at 10^−7 M was more than 60% or the value of IC50 was more than 200 nM.).

Question: How did the class turn out when `CC(NC(=O)N[C@H]1CC[C@@H](Nc2nc3c(c(N(C)C)n2)CCCC3)CC1)c1ccc(Br)cc1` (relative stereo) [compound 1728, N-[1-(4-bromophenyl)ethyl]-N′-(cis-4-{[4-(dimethylamino)-5,6,7,8-tetrahydroquinazolin-2-yl]amino}cyclohexyl)urea] was run?
Answer: Its class is 2 (Class 2: The value of percent of control at 10^−7 M was from 40% to 60% or the value of IC′50 was from 50 nM to 200 nM.).

Question: Which class does the source give for `CCOC(=O)[C@H](Cc1ccccc1)NC(=O)N[C@H]1CC[C@@H](Nc2nc3c(c(N(C)C)n2)CCCC3)CC1` (relative stereo) [compound 1730] here?
Answer: The class was 3 (Class 3 The value of percent of control at 10^−7 M was more than 60% or the value of IC50 was more than 200 nM.).

Question: `CN(C)c1nc(N[C@H]2CC[C@@H](NC(=O)NC34CC5CC(CC(C5)C3)C4)CC2)nc2c1CCCC2` (relative stereo) [compound 1807] was tested. Which class did it give?
Answer: The class was 3 (Class 3 The value of percent of control at 10^−7 M was more than 60% or the value of IC50 was more than 200 nM.).

Question: `CCOC(=O)[C@H](CC(C)C)NC(=O)N[C@H]1CC[C@@H](Nc2cc(N(C)C)c3ccccc3n2)CC1` (relative stereo) [compound 2093] was tested. Which class did it give?
Answer: Its class is 3 (Class 3 The value of percent of control at 10^−7 M was more than 60% or the value of IC50 was more than 200 nM.).
